Measurements reported in patent US20230391772A1, “METHODS AND COMPOSITIONS FOR TARGETED PROTEIN DEGRADATION” (Ranok Therapeutics (Hangzhou) Co. Ltd., priority 2020, published 2023).

Experiments:
[1] = molecular target: T1, HSP90a protein (Homo sapiens, UniProt P07900); assay: HSP90α-binding fluorescent polarization (FP) assay, BODIPY-labeled RNK04010 probe; conditions: FP competition with RNK04010 (BODIPY-labeled), 5 nM, 300 min at 25° C.
T1 construct: purchased BPS Bioscience 50298
Summary of the method: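 Compound dilutions (20 μM to 5.2 nM, 2.5-fold) are combined with 5 nM final labeled probe, and HSP90a N-terminal protein is added last. Plates are shaken briefly and held at 25° C for 120 min (FITC-geldanamycin) or 300 min (BODIPY-RNK04010), then FP is measured.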

[2] = system: NCI-H358 human non-small cell lung cancer; assay: NCI-H358 CCK-8 proliferation assay; type: cell-based; conditions: NCI-H358 cells, 72 hr
Summary of the method: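 Proliferation of mutant-KRAS(G12C) cells (2 copies in MIA PaCa-2, single copy in NCI-H358/NCI-H23) measured with CCK-8 after treatment across 20 μM–1.02 nM; inhibition expressed relative to vehicle-treated wells after subtracting no-cell background.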

SMILES | IC50 [1] | EC50 [2]
CCC(=O)N1CCN(c2nc(NCCC(=O)NCc3ccc(-n4c(O)nnc4-c4cc(C)c(O)cc4O)cc3)nc3c2CCN(c2cc(O)cc4ccccc24)C3)CC1 [Compound 30, N-(4-(3-(2,4-dihydroxy-5-methylphenyl)-5-hydroxy-4H-1,2,4-triazol-4-yl)benzyl)-3-((7-(3-hydroxynaphthalen-1-yl)-4-(4-propionylpiperazin-1-yl)-5,6,7,8-tetrahydropyrido[3,4-d]pyrimidin-2-yl)amino)propanamide, trifluoroacetic acid] | > 1000 nM | > 1000 nM
CCC(=O)N1CCN(c2nc(NCCC(=O)NCc3ccc(-n4c(O)nnc4-c4cc(CC)c(O)cc4O)cc3C(F)(F)F)nc3c2CCN(c2cc(O)cc4ccccc24)C3)CC1 [Compound 45, N-(4-(3-(5-ethyl-2,4-dihydroxyphenyl)-5-hydroxy-4H-1,2,4-triazol-4-yl)-2-(trifluoromethyl)benzyl)-3-((7-(3-hydroxynaphthalen-1-yl)-4-(4-propionylpiperazin-1-yl)-5,6,7,8-tetrahydropyrido[3,4-d]pyrimidin-2-yl)amino)propanamide, trifluoroacetic acid] | > 1000 nM | > 1000 nM
CCc1cc(-c2nnc(O)n2-c2ccc(CNC(=O)CCNc3nc4c(c(N5CCN(C(C)=O)CC5)n3)CCN(c3cc(O)cc5ccccc35)C4)c(F)c2)c(O)cc1O [Compound 43, 3-((4-(4-acetylpiperazin-1-yl)-7-(3-hydroxynaphthalen-1-yl)-5,6,7,8-tetrahydropyrido[3,4-d]pyrimidin-2-yl)amino)-N-(4-(3-(5-ethyl-2,4-dihydroxyphenyl)-5-hydroxy-4H-1,2,4-triazol-4-yl)-2-fluorobenzyl)propanamide] | > 1000 nM | > 1000 nM
CCC(=O)N1CCN(c2nc(NCCC(=O)N3CCN(Cc4ccc5c(c4)CN(C(=O)c4cc(CC)c(O)cc4O)C5)CC3)nc3c2CCN(c2cc(O)cc4ccccc24)C3)CC1 [Compound 66, 1-(4-((2-(5-ethyl-2,4-dihydroxybenzoyl)isoindolin-5-yl)methyl)piperazin-1-yl)-3-((7-(3-hydroxynaphthalen-1-yl)-4-(4-propionylpiperazin-1-yl)-5,6,7,8-tetrahydropyrido[3,4-d]pyrimidin-2-yl)amino)propan-1-one, trifluoroacetic acid] | > 1000 nM | > 1000 nM
CCC(=O)N1CCN(c2nc(NCCC(=O)N3CCC(Cc4ccc(-n5c(O)nnc5-c5cc(C(C)C)c(O)cc5O)cc4)CC3)nc3c2CCN(c2cc(O)cc4ccccc24)C3)CC1 [Compound 38, 1-(4-(4-(3-(2,4-dihydroxy-5-isopropylphenyl)-5-hydroxy-4H-1,2,4-triazol-4-yl)benzyl)piperidin-1-yl)-3-((7-(3-hydroxynaphthalen-1-yl)-4-(4-propionylpiperazin-1-yl)-5,6,7,8-tetrahydropyrido[3,4-d]pyrimidin-2-yl)amino)propan-1-one, trifluoroacetic acid] | 100 to 1000 nM | > 1000 nM
CCC(=O)N1CCN(c2nc(NCCC(=O)NCCOc3ccc(-n4c(O)nnc4-c4cc(C(C)C)c(O)cc4O)cc3)nc3c2CCN(c2cc(O)cc4ccccc24)C3)CC1 [Compound 51, N-(2-(4-(3-(2,4-dihydroxy-5-isopropylphenyl)-5-hydroxy-4H-1,2,4-triazol-4-yl)phenoxy)ethyl)-3-((7-(3-hydroxynaphthalen-1-yl)-4-(4-propionylpiperazin-1-yl)-5,6,7,8-tetrahydropyrido[3,4-d]pyrimidin-2-yl)amino)propanamide, trifluoroacetic acid] | 100 to 1000 nM | > 1000 nM
CC(=O)N1CCN(c2nc(NCCC(=O)NCc3ccc(-n4c(O)nnc4-c4cc(C)c(O)cc4O)cc3)nc3c2CCN(c2cc(O)cc4ccccc24)C3)CC1 [Compound 44, 3-((4-(4-acetylpiperazin-1-yl)-7-(3-hydroxynaphthalen-1-yl)-5,6,7,8-tetrahydropyrido[3,4-d]pyrimidin-2-yl)amino)-N-(4-(3-(2,4-dihydroxy-5-methylphenyl)-5-hydroxy-4H-1,2,4-triazol-4-yl)benzyl)propanamide, trifluoroacetic acid] | > 1000 nM | > 1000 nM
C=CC(=O)N1CCN(c2nc(NCCC(=O)NCc3ccc(-n4c(O)nnc4-c4cc(CC)c(O)cc4O)cc3C(F)(F)F)nc3c2CCN(c2cc(O)cc4ccccc24)C3)CC1 [Compound 39, 3-((4-(4-acryloylpiperazin-1-yl)-7-(3-hydroxynaphthalen-1-yl)-5,6,7,8-tetrahydropyrido[3,4-d]pyrimidin-2-yl)amino)-N-(4-(3-(5-ethyl-2,4-dihydroxyphenyl)-5-hydroxy-4H-1,2,4-triazol-4-yl)-2-(trifluoromethyl)benzyl)propanamide, trifluoroacetic acid] | > 1000 nM | > 1000 nM
C=CC(=O)N1CCN(c2nc(NCCC(=O)N3CCN(Cc4ccc5c(c4F)CN(C(=O)c4ccc(O)cc4O)C5)CC3)nc3c2CCN(c2cc(O)cc4ccccc24)C3)CC1 [Compound 105, 1-(4-(2-((3-(4-((2-(2,4-dihydroxybenzoyl)-4-fluoroisoindolin-5-yl)methyl)piperazin-1-yl)-3-oxopropyl)amino)-7-(3-hydroxynaphthalen-1-yl)-5,6,7,8-tetrahydropyrido[3,4-d]pyrimidin-4-yl)piperazin-1-yl)prop-2-en-1-one, trifluoroacetic acid] | > 1000 nM | > 1000 nM

Continued, values first:

IC50 [1] | EC50 [2] | SMILES
100 to 1000 nM | > 1000 nM | C=CC(=O)N1CCN(c2nc(NCCC(=O)NCCOCCOCCOc3ccc(-n4c(O)nnc4-c4cc(C(C)C)c(O)cc4O)cc3)nc3c2CCN(c2cccc4cccc(Cl)c24)C3)C[C@@H]1CC#N [Compound 93, (S)-3-((4-(4-acryloyl-3-(cyanomethyl)piperazin-1-yl)-7-(8-chloronaphthalen-1-yl)-5,6,7,8-tetrahydropyrido[3,4-d]pyrimidin-2-yl)amino)-N-(2-(2-(2-(4-(3-(2,4-dihydroxy-5-isopropylphenyl)-5-hydroxy-4H-1,2,4-triazol-4-yl)phenoxy)ethoxy)ethoxy)ethyl)propanamide, trifluoroacetic acid]
100 to 1000 nM | > 1000 nM | CC(=O)N1CCN(c2nc(NCCC(=O)NCc3ccc(-n4c(O)nnc4-c4cc(C(C)C)c(O)cc4O)cc3C(F)(F)F)nc3c2CCN(c2cc(O)cc4ccccc24)C3)CC1 [Compound 42, 3-((4-(4-acetylpiperazin-1-yl)-7-(3-hydroxynaphthalen-1-yl)-5,6,7,8-tetrahydropyrido[3,4-d]pyrimidin-2-yl)amino)-N-(4-(3-(2,4-dihydroxy-5-isopropylphenyl)-5-hydroxy-4H-1,2,4-triazol-4-yl)-2-(trifluoromethyl)benzyl)propanamide, trifluoroacetic acid]
< 100 nM | > 1000 nM | C=CC(=O)N1CCN(c2nc(NCCC(=O)NCCOCCOc3ccc(-n4c(O)nnc4-c4cc(C(C)C)c(O)cc4O)cc3)nc3c2CCN(c2cc(O)cc4ccccc24)C3)CC1 [Compound 72, trifluoroacetic acid]
< 100 nM | > 1000 nM | C=CC(=O)N1CCN(c2nc(NCCC(=O)NCC3CCN(C(=O)C4CCN(Cc5ccc(-n6c(O)nnc6-c6cc(CC)c(O)cc6O)cc5)CC4)CC3)nc3c2CCN(c2cccc4ccccc24)C3)C[C@H]1CC#N [Compound 103, (R)-3-((4-(4-acryloyl-3-(cyanomethyl)piperazin-1-yl)-7-(naphthalen-1-yl)-5,6,7,8-tetrahydropyrido[3,4-d]pyrimidin-2-yl)amino)-N-((1-(1-(4-(3-(5-ethyl-2,4-dihydroxyphenyl)-5-hydroxy-4H-1,2,4-triazol-4-yl)benzyl)piperidine-4-carbonyl)piperidin-4-yl)methyl)propanamide, trifluoroacetic acid]
100 to 1000 nM | > 1000 nM | C=CC(=O)N1CCN(c2nc(NCCC(=O)NCCOc3ccc(-n4c(O)nnc4-c4cc(C(C)C)c(O)cc4O)cc3)nc3c2CCN(c2cc(O)cc4ccccc24)C3)CC1 [Compound 3, 3-((4-(4-acryloylpiperazin-1-yl)-7-(3-hydroxynaphthalen-1-yl)-5,6,7,8-tetrahydropyrido[3,4-d]pyrimidin-2-yl)amino)-N-(2-(4-(3-(2,4-dihydroxy-5-isopropylphenyl)-5-hydroxy-4H-1,2,4-triazol-4-yl)phenoxy)ethyl)propanamide, trifluoroacetic acid]
100 to 1000 nM | > 1000 nM | C=CC(=O)N1CCN(c2nc(NCCC(=O)NCc3ccc(-n4c(O)nnc4-c4cc(C(C)C)c(O)cc4O)cc3F)nc3c2CCN(c2cccc4ccccc24)C3)C[C@H]1CC#N [Compound 96, (R)-3-((4-(4-acryloyl-3-(cyanomethyl)piperazin-1-yl)-7-(naphthalen-1-yl)-5,6,7,8-tetrahydropyrido[3,4-d]pyrimidin-2-yl)amino)-N-(4-(3-(2,4-dihydroxy-5-isopropylphenyl)-5-hydroxy-4H-1,2,4-triazol-4-yl)-2-fluorobenzyl)propanamide, trifluoroacetic acid]
100 to 1000 nM | 100 to 1000 nM | CCC(=O)N1CCN(c2nc(NCCC(=O)N3CCC(CN4CCN(Cc5ccc(-n6c(C(=O)NC(CC)CC)nnc6-c6cc(CC)c(O)cc6O)cc5)CC4)CC3)nc3c2CCN(c2cc(O)cc4ccccc24)C3)CC1 [Compound 117, 5-(5-ethyl-2,4-dihydroxyphenyl)-4-(4-((4-((1-(3-((7-(3-hydroxynaphthalen-1-yl)-4-(4-propionylpiperazin-1-yl)-5,6,7,8-tetrahydropyrido[3,4-d]pyrimidin-2-yl)amino)propanoyl)piperidin-4-yl)methyl)piperazin-1-yl)methyl)phenyl)-N-(pentan-3-yl)-4H-1,2,4-triazole-3-carboxamide, trifluoroacetic acid]
